{"source": "PubChem BioAssay AID312", "about": "(DTP/NCI, 2004)", "test_system": "BDF1 mice, C1498 leukemia ip, median survival T/C", "experiment": "NCI In Vivo Anticancer Drug Screen. Data for tumor model C1498 Myeloid Leukemia (intraperitoneal) in B6D2F1 (BDF1) mice", "details": "endpoint: median survival time, higher = longer survival", "experimental": "The antitumor activity of compounds was measured in mice bearing transplantable tumors. Survival or tumor size were measured and the results are expressed as the measurement made in the treated group (T) divided by the measurement made in the vehicle treated control group (C). The tumor model used in this assay is C1498 Myeloid Leukemia (intraperitoneal) in B6D2F1 (BDF1) mice", "key": {"[1]": {"details": "dose: 1.25 mg/kg/injection, schedule: Q01DX010 (ip), vehicle: other"}, "[2]": {"details": "dose: 2.5 mg/kg/injection, schedule: Q01DX010 (ip), vehicle: other"}, "[3]": {"details": "dose: 5.0 mg/kg/injection, schedule: Q01DX010 (ip), vehicle: other"}, "[4]": {"details": "dose: 10.0 mg/kg/injection, schedule: Q01DX010 (ip), vehicle: other"}, "[5]": {"details": "dose: 5.0 mg/kg/injection, schedule: Q01DX010 (ip), vehicle: saline"}, "[6]": {"details": "dose: 10.0 mg/kg/injection, schedule: Q01DX010 (ip), vehicle: saline"}, "[7]": {"details": "dose: 20.0 mg/kg/injection, schedule: Q01DX010 (ip), vehicle: saline"}, "[8]": {"details": "dose: 40.0 mg/kg/injection, schedule: Q01DX010 (ip), vehicle: saline"}, "[9]": {"details": "dose: 31.3 mg/kg/injection, schedule: Q01DX010 (ip), vehicle: saline"}, "[10]": {"details": "dose: 62.5 mg/kg/injection, schedule: Q01DX010 (ip), vehicle: saline"}, "[11]": {"details": "dose: 125.0 mg/kg/injection, schedule: Q01DX010 (ip), vehicle: saline"}, "[12]": {"details": "dose: 250.0 mg/kg/injection, schedule: Q01DX010 (ip), vehicle: saline"}, "[13]": {"details": "dose: 25.0 mg/kg/injection, schedule: Q01DX010 (ip), vehicle: saline"}, "[14]": {"details": "dose: 50.0 mg/kg/injection, schedule: Q01DX010 (ip), vehicle: saline"}, "[15]": {"details": "dose: 100.0 mg/kg/injection, schedule: Q01DX010 (ip), vehicle: saline"}}, "note": "“And” between values parts separate entries of the source, which are not always exact repeats. Equal values may be shown once. Inconclusive results and toxic doses are left out.", "data": [{"smiles": "Nc1nc(=S)c2[nH]cnc2[nH]1", "values": [{"measurement": "T/C", "setting": "[1]", "result": "104 % of control"}, {"measurement": "T/C", "setting": "[2]", "result": "123 % of control"}, {"measurement": "T/C", "setting": "[3]", "result": "104 % of control"}, {"measurement": "T/C", "setting": "[4]", "result": "109 % of control"}, {"measurement": "T/C", "setting": "dose: 27.0 mg/kg/injection, schedule: Q01DX001 (ip), vehicle: alkali diluted with saline", "result": "97 % of control"}, {"measurement": "T/C", "setting": "dose: 40.0 mg/kg/injection, schedule: Q01DX001 (ip), vehicle: alkali diluted with saline", "result": "101 % of control"}, {"measurement": "T/C", "setting": "dose: 60.0 mg/kg/injection, schedule: Q01DX001 (ip), vehicle: alkali diluted with saline", "result": "112 % of control"}, {"measurement": "T/C", "setting": "dose: 90.0 mg/kg/injection, schedule: Q01DX001 (ip), vehicle: alkali diluted with saline", "result": "150 % of control"}]}, {"smiles": "CN(C)c1ccc(/C=C/c2ccnc3ccccc23)cc1", "values": [{"measurement": "T/C", "setting": "[5]", "result": "100 % of control"}, {"measurement": "T/C", "setting": "[6]", "result": "100 % of control and 104 % of control"}, {"measurement": "T/C", "setting": "[7]", "result": "95 % of control and 100 % of control"}, {"measurement": "T/C", "setting": "[8]", "result": "95 % of control and 109 % of control"}]}, {"smiles": "O=P1(N(CCCl)CCCl)NCCCO1", "note": "(centres undefined)", "values": [{"measurement": "T/C", "setting": "dose: 200.0 mg/kg/injection, schedule: Q01DX001 (ip), vehicle: saline", "result": "162 % of control and 207 % of control"}, {"measurement": "T/C", "setting": "dose: 300.0 mg/kg/injection, schedule: Q01DX001 (ip), vehicle: saline", "result": "171 % of control and 241 % of control"}]}, {"smiles": "CCn1cnc2c(=S)nc[nH]c21", "values": [{"measurement": "T/C", "setting": "dose: 15.6 mg/kg/injection, schedule: Q01DX010 (ip), vehicle: saline", "result": "105 % of control"}, {"measurement": "T/C", "setting": "[9]", "result": "100 % of control"}, {"measurement": "T/C", "setting": "[10]", "result": "105 % of control"}, {"measurement": "T/C", "setting": "[11]", "result": "105 % of control"}]}, {"smiles": "C[C@@H]1C[C@@H]([C@H](O)CC2CC(=O)NC(=O)C2)C(=O)[C@@H](C)C1", "values": [{"measurement": "T/C", "setting": "[5]", "result": "104 % of control and 109 % of control"}, {"measurement": "T/C", "setting": "[6]", "result": "114 % of control and 122 % of control"}, {"measurement": "T/C", "setting": "[7]", "result": "113 % of control and 123 % of control"}, {"measurement": "T/C", "setting": "[8]", "result": "113 % of control"}]}, {"smiles": "CCCCCCCCCCCCCCCC(=O)OCC1OC(n2ccc(N)nc2=O)C(O)C1O", "note": "(centres undefined)", "values": [{"measurement": "T/C", "setting": "dose: 125.0 mg/kg/injection, schedule: Q01DX001 (ip), vehicle: saline with Tween-80", "result": "153 % of control and 155 % of control"}, {"measurement": "T/C", "setting": "dose: 150.0 mg/kg/injection, schedule: Q01DX001 (ip), vehicle: saline with Tween-80", "result": "151 % of control and 194 % of control"}]}, {"smiles": "Nc1c(Br)cc2c(c1Br)Cc1cc([N+](=O)[O-])ccc1-2", "values": [{"measurement": "T/C", "setting": "[9]", "result": "91 % of control"}, {"measurement": "T/C", "setting": "[10]", "result": "91 % of control and 100 % of control"}, {"measurement": "T/C", "setting": "[11]", "result": "91 % of control"}, {"measurement": "T/C", "setting": "[12]", "result": "91 % of control and 95 % of control"}, {"measurement": "T/C", "setting": "dose: 500.0 mg/kg/injection, schedule: Q01DX010 (ip), vehicle: saline", "result": "95 % of control"}]}, {"smiles": "COc1cc(-c2ccc(Nc3ccccc3C(=O)O)c(OC)c2)ccc1Nc1ccccc1C(=O)O", "values": [{"measurement": "T/C", "setting": "[13]", "result": "112 % of control"}, {"measurement": "T/C", "setting": "[14]", "result": "104 % of control"}, {"measurement": "T/C", "setting": "[15]", "result": "100 % of control"}]}, {"smiles": "C1CN1c1nc(N2CC2)nc(N2CC2)n1", "values": [{"measurement": "T/C", "setting": "dose: 0.25 mg/kg/injection, schedule: Q01DX010 (ip), vehicle: saline", "result": "110 % of control"}, {"measurement": "T/C", "setting": "dose: 0.5 mg/kg/injection, schedule: Q01DX010 (ip), vehicle: saline", "result": "110 % of control"}]}, {"smiles": "S=c1nc[nH]c2nc[nH]c12", "values": [{"measurement": "T/C", "setting": "[1]", "result": "104 % of control"}, {"measurement": "T/C", "setting": "[2]", "result": "95 % of control"}, {"measurement": "T/C", "setting": "[3]", "result": "109 % of control"}, {"measurement": "T/C", "setting": "[4]", "result": "95 % of control"}]}, {"smiles": "CS(=O)(=O)OCCCCOS(C)(=O)=O", "values": [{"measurement": "T/C", "setting": "dose: 6.25 mg/kg/injection, schedule: Q01DX010 (ip), vehicle: saline", "result": "95 % of control"}, {"measurement": "T/C", "setting": "dose: 12.5 mg/kg/injection, schedule: Q01DX010 (ip), vehicle: saline", "result": "95 % of control and 90 % of control"}, {"measurement": "T/C", "setting": "[13]", "result": "113 % of control"}, {"measurement": "T/C", "setting": "[14]", "result": "109 % of control and 119 % of control"}]}, {"smiles": "CS(=O)(=O)OCC(O)C(O)C(O)C(O)COS(C)(=O)=O", "note": "(centres undefined)", "values": [{"measurement": "T/C", "setting": "[13]", "result": "100 % of control (2×) and 104 % of control"}, {"measurement": "T/C", "setting": "[14]", "result": "95 % of control and 100 % of control and 108 % of control"}, {"measurement": "T/C", "setting": "[15]", "result": "100 % of control (2×) and 109 % of control"}, {"measurement": "T/C", "setting": "dose: 200.0 mg/kg/injection, schedule: Q01DX010 (ip), vehicle: saline", "result": "104 % of control"}]}, {"smiles": "COc1cccc2c1C(=O)c1c(O)c3c(c(O)c1C2=O)C[C@@](O)(C(C)=O)C[C@@H]3OC1CC(N)C(O)C(C)O1", "note": "(some centres undefined)", "values": [{"measurement": "T/C", "setting": "[1]", "result": "107 % of control and 115 % of control"}, {"measurement": "T/C", "setting": "[2]", "result": "92 % of control and 111 % of control"}, {"measurement": "T/C", "setting": "dose: 156.0 micrograms/kg/injection, schedule: Q01DX010 (ip), vehicle: saline", "result": "118 % of control"}, {"measurement": "T/C", "setting": "dose: 313.0 micrograms/kg/injection, schedule: Q01DX010 (ip), vehicle: saline", "result": "118 % of control"}]}, {"smiles": "CCN(CCNc1ccc(C)c2sc3cc(Cl)ccc3c(=O)c12)CC(C)O", "note": "(centres undefined)", "values": [{"measurement": "T/C", "setting": "[9]", "result": "86 % of control"}, {"measurement": "T/C", "setting": "[10]", "result": "104 % of control and 90 % of control"}, {"measurement": "T/C", "setting": "[11]", "result": "95 % of control and 86 % of control"}, {"measurement": "T/C", "setting": "[12]", "result": "86 % of control"}]}]}
